Results taken from patent US9801958B2, “Polymer nanoparticle composite and composition for MRI imaging including same” (THE UNIVERSITY OF TOKYO, priority 2013, dated 2017).

Tests used:
[1] = tested on: Colon26 liver metastatic tumor; conditions: property in clinical practice; cited from earlier work
[2] = mouse, in vivo
Source text: Here, the maximum tolerant dose (MTD) of MnCaP for a mouse is about 1.5 mmol/kg. In this regard, the maximum tolerant dose (MTD) of MnCl2 is about 0.22 mmol/kg, which is about 1/7 the maximum tolerant dose (MTD) of MnCaP. Therefore, the polymer nanoparticle composite of the present invention that uses MnCaP is also extremely good for practical use in MRI contrast in terms of maximum tolerant dose (MTD).

[3] = Relaxivity measurement and T1-weighted imaging in solution, 1T MR; type: physicochemical; conditions: 0.1-0.5 mM, distilled water
Protocol: In order to measure the relaxivity of the produced MnCaP nanoparticle composite and compare the contrast effect with existing MnCl2 alone, a preclinical permanent magnet type 1T (Tesla) MR equipment (Icon™, Bruker-Biospin, Germany) was used to measure the relaxivity and acquire T1-weighted images for comparison. For the measurements, the MnCaP nanoparticle composite at a concentration of 0.1-0.5 mM and MnCl2 at the same concentration were used and measured in PCR sample tubes. Distilled water was used for dilution.
The relaxivity was measured using a proton volume coil (inner diameter 35 mm). As the contrast method, a rapid spin-echo technique adopting inversion pulse (Rapid Acquisition with Relaxation Enhancement, RARE) was employed. […]

Row | Compound | appearance of normal liver region (clinical contrast agent) [1] | signal change in liver tumor region (clinical contrast agent) [1] | MTD of MnCl2 relative to MTD of MnCaP [2] | maximum tolerant dose (MTD) [2] | longitudinal relaxivity r1 [3] [mM⁻¹ s⁻¹]
1 | CCOc1ccc(C[C@@H](CN(CCN(CC(=O)[O-])CC(=O)[O-])CC(=O)[O-])N(CC(=O)[O-])CC(=O)[O-])cc1.[Gd+3].[H+].[H+] [Gd-EOB-DTPA] | in white | almost no change |  |  | 
2 | [Cl][Mn][Cl] [MnCl2] |  |  | about 1/7 | about 0.22 mmol/kg | 7.30 to 7.58
